Source: PubChem BioAssay AID504573 (Southern Research Specialized Biocontainment Screening …, 2011)

Test system: host cell cytotoxicity, % cell control, 5% serum
Assay: viability loss in CCR5-tropic fusion assay cells – cell-based, 5% serum, set 2, cytotoxicity control for HIV-1 antiviral lead project, dose response (AID 504573)

Row | Structure (SMILES) | CC50 [µM]
1 | COc1ccc(CCn2c(O)cc3nn(-c4nc5ccccc5s4)c(=O)c-3c2C)cc1 | 7.2
2 | Cc1c2c(=O)n(-c3nc4ccccc4s3)nc-2cc(O)n1CCc1cccs1 | 5.51
3 | Cc1c2c(=O)n(-c3nc4ccccc4s3)nc-2cc(O)n1Cc1ccccc1Cl | 4.34
4 | Cc1c2c(=O)n(-c3nc4ccccc4s3)nc-2cc(O)n1CCc1ccc(O)cc1 | 3.74
5 | Cc1c2c(=O)n(-c3nc4ccccc4s3)nc-2cc(O)n1C1CC1 | 4.98
6 | Cc1c2c(=O)n(-c3nc4ccccc4s3)nc-2cc(O)n1Cc1cccnc1 | 3.89
7 | COc1ccc(Cn2c(O)cc3nn(-c4nc5ccccc5s4)c(=O)c-3c2C)cc1 | 5.15
8 | Cc1c2c(=O)n(-c3nc4ccccc4s3)nc-2cc(O)n1CCC(C)C | 5.64
9 | Cc1c2c(=O)n(-c3nc4ccccc4s3)nc-2cc(O)n1Cc1ccccc1 | 5.4
10 | Cc1c2c(=O)n(-c3nc4ccccc4s3)nc-2cc(O)n1Cc1ccc(F)cc1 | 4.4
11 | Cc1c2c(=O)n(-c3nc4ccccc4s3)nc-2cc(O)n1Cc1ccncc1 | 5.07
12 | COc1ccccc1Cn1c(O)cc2nn(-c3nc4ccccc4s3)c(=O)c-2c1C | 8.08
13 | Cc1c2c(=O)n(-c3nc4ccccc4s3)nc-2cc(O)n1Cc1cccs1 | 5.94
